Read-outs that look alike come from different tables or passages of the source.

In one data set the test system is AT-2 cells. Description: Pseudopod length / retraction assay, AT-2 cells. The note with it: AA even at 10^−1M. In kind it is cell-based, rat. The protocol:
Pseudopod Morphometry. To study the effects of various agents on pseudopods on a short-term basis, we measured pseudopod lengths. Cells plated in 35-mm diameter dishes at low density (1×10^4 per dish) were incubated overnight, tie medium was changed, and the experiments were run four hours later. First, cultures were shifted to serum-free medium, which was replaced one hour later by serum-free medium with or without the various agents (thrombin, AA or HETEs). Care was taken to avoid heat and light inactivation of the eicosanoids. Culture dishes were placed on a Zeiss inverted microscope equipped with a heated stage and viewed with a 16×phase contrast objective lens. Randomly selected fields of the cultures, containing generally about 20 cells each, were recorded, digitized and stored in the computer at the onset of the experiment and at different times thereafter.
In some cases, individual cells were monitored over different periods of time immediately after introduction of the reagent, either by mixing it into the medium or by applying it locally to one end of the cell. Local application was done with a “puffer” system that expels microliter amounts of the desired solution from a micromanipulator-controlled micropipette tip. Cell morphology was recorded, and the captured images were analyzed with a Power Macintosh computer using NIH Image. Cell process length was measured from the center of the nucleus to the end of the process. Characterization of the frequencies of pseudopod lengths, at a fixed time for each of a sequence of concentrations of reagent, utilized a gamma regression model with an inverse quadratic linear predictor (McCullagh and Nelder, Generalized Linear Models 2d ed., pp. 291-292 (Chapman & Hall, 1989), separately fit to each concentration data set. Although no formal goodness-of-fit tests were carried out, in virtually every case there was good visual representation of the pattern of response (see FIG. 14). Most data, however, are shown as whisker-box plots, where the center point represents the 50%, the ends of the box the […] and 75%, and the “whiskers” the 5% and 95% quantiles (e.g., FIG. 11). Statistical comparisons of pseudopod lengths for different treatments were done by standard non-parametric techniques (Wilcoxon Rank Sum or Kruskal-Wallis Tests), as judged appropriate. Polynomial curve fittings were done by standard least-squares techniques. Statistical analyses and graphing were done with the use of SAS procedures: Reg, Phreg, Nparlway and Plot (SAS institute Inc., Cary, N.C.).

In the next data set the test system is cPLA2. Nature of the data set: cPLA2 activity in PC-3M-MM2 cells. In kind it is biochemical, human. The procedure:
PLA2 stimulation. Using ^14C-AA-PE, -PC or -PI as a substrate, thrombin, SemaIV and netrin activation of the enzyme are measured. For these assays, commercially available thrombin or thrombin-receptor-activating peptide (TRAP) (Sigma, St. Louis, Mo.), recombinant SemaIV provided to us by Dr. H. Drabkin, University of Colorado School of Medicine, recombinant SemaIII provided by Dr. Y. Luo, Exelixis Pharmaceuticals, San Francisco Calif., and recombinant netrin from Dr. M. Tessier-Lavigne, (University of California, San Francisco) are used. Time courses and dose-response curves are generated with the appropriate substrate(s). These assays are carried out according to well-established protocols described in Negre-Aminou et al., 1996, supra, incorporated herein by reference, on cells grown to equal density levels (as determined by protein and DNA content). Some enzyme assays are carried out in the presence of reducing agent, which blocks secreted but not cytosolic PLA2 activity, to exclude potential interference by secreted PLA2. To characterize the stimulated cPLA2 further, cultured cells are homogenized in protease inhibitor-containing buffer, in the presence of 1 mM EDTA or 0.3 mM Ca^2+, and then centrifuged in order to generate crude membrane fractions and cytosolic extracts. […] In separate experiments, enzyme activity is measured in the presence of different concentrations of free calcium to determine whether the enzyme activity is calcium-dependent or not

A further data set deals with growth cone PLA2. Description: PLA2 assay in growth cone particles (GCPs). The data set is classed as biochemical, rat. The settings on record: for net activity (pmol/min/mg protein), GCPs: Table 3a, 100 nM. The protocol: Growth Cone Particle (GCP) Isolation. GCPs were prepared as described by Pfenninger et al. (1983) and modified by Lohse et al., Dev. Brain Res., 96:38-96 (1996). Briefly, 18-day fetal brains were homogenized in approximately 8 volumes of 0.32 M sucrose containing 1 mM MgCl2, 2 mM TES buffer, pH 7.3, and 3 μM aprotinin. A low-speed supernatant (1,660 g×15 min) was loaded onto a discontinuous sucrose density gradient With steps of 0.83 M and 2.66 M sucrose containing MgCl2 and TES. The gradients were spun to equilibrium at 242,000 g for 40 min in a vertical rotor (Vti50, Beckman). The GCP fraction at the 0.32/0.83 M sucrose interface was collected and used for the experiments described below.
(§1) All assays were run in triplicate.

The subject of the next data set is growth cone PLC. Description: Phospholipase C assay (DG release) in GCPs. In kind it is biochemical, rat. The settings on record: GCPs; thrombin 100 nM; calcium-dependent.
Source text: as §1

The next data set concerns PLA2. The settings on record: Table 3a, 100 nM.

Regarding “thrombin: potent growth cone repellent; commercially available thrombin (Sigma); rat thrombin in Boyden assays”, the “pseudopod retraction response of AT-2 cells” value with AT-2 cells is “essentially did not respond”. Besides, in the data set with cPLA2, the “stimulation of AA release from PC” value is reported as “about 4 fold”, the “stimulation of AA release from PE” value was “about 4 fold” and the “stimulation of PI hydrolysis” value is “not further stimulated by thrombin”. For the same substance, in the data set on growth cone PLA2 (AA release from PI), the “concentration at which PLA2 activation saturates” value is given as “about 250 nM”. Besides, the “net activity (pmol/min/mg protein), GCPs” value in the data set with growth cone PLA2 (substrate PE) was determined as 210.2 ± 4.8 pmol/min/mg protein. Besides, in the data set with growth cone PLA2 (substrate PI), the “net activity (pmol/min/mg protein), GCPs” value was determined as 262 ± 47 pmol/min/mg protein. The “net activity (pmol/min/mg protein), no DTT” value with growth cone PLA2 (Table 3b, GCPs, substrate PI, thrombin 100 nM) is 221 ± 39.9 pmol/min/mg protein. The “net activity (pmol/min/mg protein), 50 nM DTT” value in the data set on growth cone PLA2 (Table 3b, GCPs, substrate PI, thrombin 100 nM or control) worked out at 223 ± 53.4 pmol/min/mg protein. Also, in the data set on growth cone PLA2 (Table 3c, GCPs, substrate PI, BDNF 100, IGF-1 0.75, insulin 1, thrombin 200 nM, control 159 ± 6.2), the “net activity (pmol/min/mg protein)” value was 355 ± 28.0 pmol/min/mg protein. Also, in the data set with growth cone PLA2 (thrombin 100 nM, GCPs), the “stimulation of PC-hydrolyzing cPLA2 (14C-AA release from PC)” value is “about 7 fold”, the “stimulation of cPLA2-PE (14C-AA release from PE)” value is approximately 7 fold and the “stimulation of cPLA2-PI (14C-AA release from PI)” value is on record as “about 5 fold”. The “stimulation of PC-hydrolyzing cPLA2 (14C-AA release from PC)” value with growth cone PLA2 (thrombin 100 nM, GCPs, listed as Thrombin) is reported as approximately 7 fold. The “effect on DG release from PI” value in the data set on growth cone PLC was “inhibits DG release, rather than stimulating it”. Further, the “net activity (pmol/min/mg protein), intact neurons” value with PLA2 (substrate PE) stood at 26.8 ± 1.9 pmol/min/mg protein. Also, the “net activity (pmol/min/mg protein), intact neurons” value in the data set with PLA2 (substrate PI) is 42.5 ± 16 pmol/min/mg protein.
